Measured values published in ChEMBL document CHEMBL5385906, “Discovery of a Potent, Selective, and Orally Bioavailable Tool Compound for Probing the Role of Lysophosphatidic Acid Type 2 Receptor Antagonists in Fibrotic Disorders” (J Med Chem, 2023).

Key:
[1] = target: Lysophosphatidic acid receptor 2 (Mus musculus, UniProt Q9JL06); experiment: Antagonist activity at mouse LPA2 receptor expressed in HeLa cells assessed as inhibition of LPA-induced calcium mobilization pretreated for 15 mins followed by LPA stimulation by FLIPR analysis; format: functional, cell-based
[2] = Efflux ratio of apparent permeability across apical to basolateral to basolateral to apical side in human Caco-2 cells at 10 uM measured after 60 mins by LC-MS/MS analysis
[3] = Protein binding in human plasma assessed as fraction unbound at 0.5 uM measured after 5 hrs by LC-MS/MS analysis
[4] = Protein binding in mouse plasma assessed as fraction unbound at 0.5 uM measured after 5 hrs by LC-MS/MS analysis
[5] = Protein binding in mouse lungs assessed as fraction unbound at 5 uM measured after 5 hrs by LC-MS/MS analysis
[6] = Apparent permeability across apical to basolateral side in human Caco-2 cells at 10 uM measured after 60 mins by LC-MS/MS analysis
[7] = Apparent permeability across basolateral to apical side in human Caco-2 cells at 10 uM measured after 60 mins by LC-MS/MS analysis
[8] = Half life in C57BL/6J mouse at 30 mg/kg, po and 2 mg/kg, iv by LC-MS/MS analysis; details: in vivo
[9] = Oral absorption in C57BL/6J mouse at 30 mg/kg by LC-MS/MS analysis; details: in vivo
[10] = target: Lysophosphatidic acid receptor 2 (Homo sapiens, UniProt Q9HBW0)
Description: Antagonist activity at human LPA2 receptor expressed in CHO cells assessed as inhibition of LPA-induced calcium mobilization pretreated for 15 mins followed by LPA stimulation by FLIPR analysis

[11] = target: Lysophosphatidic acid receptor 1 (Homo sapiens, UniProt Q92633)
Description: Antagonist activity at human LPA1 receptor expressed in CHO cells assessed as inhibition of LPA-induced calcium mobilization pretreated for 15 mins followed by LPA stimulation by FLIPR analysis

[12] = in vivo; details: C57BL/6J, mouse, po, 30 mg/kg
[13] = in vivo; details: C57BL/6J, mouse, plasma, po, 30 mg/kg
[14] = in vivo; details: C57BL/6J, mouse, plasma, po, 30 mg/kg; remark: listed apart in the source
[15] = in vivo; details: C57BL/6J, mouse, lung, po, 30 mg/kg
[16] = in vivo; details: C57BL/6J, mouse, lung, po, 30 mg/kg; remark: listed apart in the source
[17] = in vitro; details: human, liver microsomes, CLH
Description: Intrinsic clearance in human liver microsomes at 0.5 uM in presence of NADPH regenerating system measured for 45 mins per mg protein by LC-MS/MS analysis

[18] = in vitro; details: C57BL/6J, mouse, liver microsomes
Description: Intrinsic clearance in C57BL/6J mouse liver microsomes at 0.5 uM in presence of NADPH regenerating system measured for 45 mins per mg protein by LC-MS/MS analysis

Lysophosphatidic acid receptor 2 (Homo sapiens, UniProt Q9HBW0), sequence (Q9HBW0 whole entry): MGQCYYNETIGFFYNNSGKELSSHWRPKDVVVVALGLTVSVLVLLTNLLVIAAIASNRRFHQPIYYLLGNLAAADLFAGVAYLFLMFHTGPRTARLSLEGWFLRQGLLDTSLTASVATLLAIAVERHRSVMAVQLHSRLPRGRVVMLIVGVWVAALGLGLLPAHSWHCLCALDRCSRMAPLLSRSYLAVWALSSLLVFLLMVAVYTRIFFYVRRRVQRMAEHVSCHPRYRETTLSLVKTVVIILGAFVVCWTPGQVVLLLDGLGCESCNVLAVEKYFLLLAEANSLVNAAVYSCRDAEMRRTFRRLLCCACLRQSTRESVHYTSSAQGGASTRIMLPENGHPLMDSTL
Lysophosphatidic acid receptor 1, sequence (Q92633 whole entry): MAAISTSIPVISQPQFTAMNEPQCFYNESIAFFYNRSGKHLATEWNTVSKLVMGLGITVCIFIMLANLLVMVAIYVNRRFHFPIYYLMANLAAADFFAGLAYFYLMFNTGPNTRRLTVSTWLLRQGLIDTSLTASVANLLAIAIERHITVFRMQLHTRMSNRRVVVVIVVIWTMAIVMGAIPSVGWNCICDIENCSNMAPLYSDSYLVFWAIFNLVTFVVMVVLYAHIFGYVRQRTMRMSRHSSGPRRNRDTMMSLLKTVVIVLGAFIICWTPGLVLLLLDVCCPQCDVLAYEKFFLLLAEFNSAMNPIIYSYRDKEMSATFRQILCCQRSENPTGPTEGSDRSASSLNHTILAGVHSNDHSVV
Lysophosphatidic acid receptor 2 (Mus musculus, UniProt Q9JL06), sequence (Q9JL06 whole entry): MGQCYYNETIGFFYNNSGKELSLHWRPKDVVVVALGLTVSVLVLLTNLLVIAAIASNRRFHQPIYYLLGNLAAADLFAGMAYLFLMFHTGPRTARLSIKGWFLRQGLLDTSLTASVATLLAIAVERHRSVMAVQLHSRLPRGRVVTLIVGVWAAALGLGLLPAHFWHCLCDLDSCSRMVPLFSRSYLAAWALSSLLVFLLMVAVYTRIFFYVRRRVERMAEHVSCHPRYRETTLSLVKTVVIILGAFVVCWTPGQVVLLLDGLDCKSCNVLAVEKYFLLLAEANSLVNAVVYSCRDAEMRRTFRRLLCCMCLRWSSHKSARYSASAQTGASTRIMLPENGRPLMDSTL

COC(=O)Nc1nc(C)c(S(=O)(=O)N2CCN(C[C@H](C)Nc3ncnc4c(-c5c(C)noc5C)cccc34)CC2)s1
IC50 ([1]; read-out: pIC50 (converted)): 0.0282 µM
efflux ratio at 1 h, 10 µM [2]: 6.3
fraction unbound at 5 h, 0.5 µM [3]: < 0.01
fraction unbound at 5 h, 0.5 µM [4]: 0.0043
fraction unbound at 5 h, 5 µM [5]: 0.0185
Papp A→B at 1 h, 10 µM [6]: 1.47 ×10⁻⁶ cm/s
Papp B→A at 1 h, 10 µM [7]: 9.29 ×10⁻⁶ cm/s
half-life [8]: 1.32 h
Fa [9]: 96%
IC50 [10]: 0.000759 µM
IC50 [11]: > 50.1 µM
bioavailability [12]: 92%
Cmax [13]: 76200 ng/mL
AUC(0-t) [14]: 124000 ng·h/mL
Cmax [15]: 15100 ng/mL
AUC(0-t) [16]: 25800 ng·h/mL
microsomal CLint at 0.75 h, 0.5 µM [17]: 89 µL/min/mg
microsomal CLint at 0.75 h, 0.5 µM [18]: 94 µL/min/mg

COC(=O)Nc1nc(C)c(S(=O)(=O)N2CCN(C[C@H](C)Nc3ncnc4c(-c5cccc(CN6CCCC6)c5)cccc34)CC2)s1
IC50 ([1]; read-out: pIC50 (converted)): 0.00457 µM
efflux ratio at 1 h, 10 µM [2]: 98.1
fraction unbound at 5 h, 0.5 µM [3]: < 0.01
fraction unbound at 5 h, 0.5 µM [4]: 0.0059
fraction unbound at 5 h, 5 µM [5]: 0.0187
Papp A→B at 1 h, 10 µM [6]: 0.09 ×10⁻⁶ cm/s
Papp B→A at 1 h, 10 µM [7]: 8.95 ×10⁻⁶ cm/s
half-life [8]: 2.45 h
Fa [9]: 9%
IC50 [10]: 0.000282 µM
IC50 [11]: > 50.1 µM
bioavailability [12]: 7%
Cmax [13]: 4230 ng/mL
AUC(0-t) [14]: 12900 ng·h/mL
Cmax [15]: 2680 ng/mL
AUC(0-t) [16]: 19500 ng·h/mL
microsomal CLint at 0.75 h, 0.5 µM [17]: 104 µL/min/mg
microsomal CLint at 0.75 h, 0.5 µM [18]: 133 µL/min/mg

C[C@@H](CN1CCN(S(=O)(=O)c2ccc(Cl)c(Cl)c2)CC1)Nc1ncnc2cnn(C)c12
IC50 [10]: 17.4 µM

C[C@@H](CN1CCN(S(=O)(=O)c2ccc(Cl)c(Cl)c2)CC1)Nc1ncnc2cc[nH]c12
IC50 [10]: 15.8 µM

COC(=O)Nc1nc(C)c(S(=O)(=O)N2CCN(C[C@H](C)Nc3ncnc4c(-c5sc(C)nc5C)cccc34)CC2)s1
IC50 ([1]; read-out: pIC50 (converted)): 0.00692 µM
efflux ratio at 1 h, 10 µM [2]: 0.6
fraction unbound at 5 h, 0.5 µM [3]: 0.0002
fraction unbound at 5 h, 0.5 µM [4]: 0.0372
fraction unbound at 5 h, 5 µM [5]: 0.022
Papp A→B at 1 h, 10 µM [6]: 9.2 ×10⁻⁶ cm/s
Papp B→A at 1 h, 10 µM [7]: 5.39 ×10⁻⁶ cm/s
half-life [8]: 1.88 h
Fa [9]: 76%
IC50 [10]: 0.000251 µM
IC50 [11]: > 0.501 µM
bioavailability [12]: 64%
Cmax [13]: 72300 ng/mL
AUC(0-t) [14]: 230000 ng·h/mL
Cmax [15]: 19900 ng/mL
AUC(0-t) [16]: 56200 ng·h/mL
microsomal CLint at 0.75 h, 0.5 µM [17]: 15 µL/min/mg
microsomal CLint at 0.75 h, 0.5 µM [18]: 15 µL/min/mg

COC(=O)Nc1nc(C)c(S(=O)(=O)N2CCN(C[C@H](C)Nc3ncnc4c(C(F)(F)F)cccc34)CC2)s1
IC50 [10]: 0.0447 µM

C[C@@H](CN1CCN(S(=O)(=O)c2ccc(Cl)c(Cl)c2)CC1)Nc1ncnc2cc(C(F)(F)F)ccc12
IC50 [10]: 18.2 µM

COC(=O)Nc1nc(C)c(S(=O)(=O)N2CCN(C[C@H](C)Nc3ncnc4c(-c5ccc(F)c(CN(C)C)c5)cccc34)CC2)s1
IC50 ([1]; read-out: IC50): 0.00646 µM
IC50 [11]: > 50.1 µM

COC(=O)Nc1nc(C)c(S(=O)(=O)N2CCN(C[C@H](C)Nc3ncnc4c(C(=O)N(C)C)cccc34)CC2)s1
IC50 ([1]; read-out: pIC50 (converted)): 3.98 µM

Cc1csc2c(N[C@@H](C)C(=O)N3CCN(S(=O)(=O)c4ccc(Cl)c(Cl)c4)CC3)ncnc12
IC50 [11]: > 50.1 µM

Cc1csc2c(N[C@@H](C)CN3CCN(S(=O)(=O)c4ccc(Cl)c(Cl)c4)CC34CC4)ncnc12
IC50 [10]: 9.33 µM

Cc1csc2c(NC3(CN4CCN(S(=O)(=O)c5ccc(Cl)c(Cl)c5)CC4)CC3)ncnc12
IC50 [10]: 8.32 µM

Cc1csc2c(N[C@@H](C)CN3CC4CC3CN4S(=O)(=O)c3ccc(Cl)c(Cl)c3)ncnc12 (stereo not given in full)
IC50 [10]: 11.2 µM
IC50 [11]: 18.2 µM

Cc1noc(-c2ccc(S(=O)(=O)N3CCN(C[C@H](C)Nc4ncnc5c(C(F)(F)F)cccc45)CC3)s2)c1C
IC50 [10]: 0.00575 µM

Cc1csc2c(N[C@@H](C)CNC3CCC(NS(=O)(=O)c4ccc(Cl)c(Cl)c4)CC3)ncnc12 (stereo not given in full)
IC50 [10]: 35.5 µM

Cc1noc(-c2ccc(S(=O)(=O)N3CCN(C[C@H](C)Nc4ncnc5c(C)csc45)CC3)s2)c1C
IC50 [10]: 0.0437 µM

CC(=O)Nc1ccc(S(=O)(=O)N2CCN(C[C@H](C)Nc3ncnc4c(C)csc34)CC2)cn1
IC50 [10]: 13.8 µM
IC50 [11]: > 50.1 µM

Cc1csc2c(N[C@@H](C)CNC3CCN(S(=O)(=O)c4ccc(Cl)c(Cl)c4)CC3)ncnc12
IC50 [10]: 17 µM

CC(=O)Nc1ccc(S(=O)(=O)N2CCN(C[C@H](C)Nc3ncnc4c(C)csc34)CC2)cc1Cl
IC50 [10]: 4.07 µM

C[C@@H](CN1CCN(S(=O)(=O)c2ccc(Cl)c(Cl)c2)CC1)Nc1ncnc2ccn(C)c12
IC50 [10]: 8.13 µM

Cc1csc2c(N3CCC[C@H]3CN3CCN(S(=O)(=O)c4ccc(Cl)c(Cl)c4)CC3)ncnc12
IC50 [10]: 30.2 µM
